Source: patent US20240302376A1, “METHOD FOR IDENTIFYING SUBGROUPS OF CIRCULATING TUMOR CELLS (CTCS) IN THE CTC POPULATION OF A BIOLOGICAL SAMPLE” (priority 2012, published 2024)

What was measured:
[1] = system: Pt-(GpG) adducts in DNA of CTC and CD45-positive cells; experiment: Pt-(GpG) DNA adducts in CD45/CD15-depleted mononuclear cell fraction exposed to cisplatin ex vivo; assay type: cell-based, human; conditions: after exposure to cisplatin, NSCLC patient blood
Source text: Pt-(GpG) intrastrand crosslinks are the major DNA adducts induced by platinum-based anticancer drugs. […] Pt-(GpG) DNA adducts in CTCs treated with cisplatin in medium upfront to systemic therapy from patients with advanced non-small-cell lung cancer (NSCLC) was studied.
Blood was drawn before systemic treatment and the CD45/CD15-depleted fraction of mononuclear cells was exposed to cisplatin, verified for the presence of CTC by pan-cytokeratin (pCK) staining and immunoanalysed for the level of Pt-(GpG) in DNA. Pt-(GpG) adducts can be detected in CTC from NSCLC patients and assessing their kinetics constitutes a clinically feasible biomarker for response prediction and dose individualisation of platinum-based chemotherapy.
Epithelial CTCs were detected that stained positive for DAPI and pCK and negative for CD45. The ratio of pCK− positive to CD45-positive cells in the depleted fractions was in the range of […], resulting in up to three CTC per cell spot on the slides. […]
The measurement of Pt-(GpG) adducts in the nuclear DNA of short term-exposed CTC depict a characteristic time course of formation and removal. […] The degree of association was calculated between these three values of ex vivo adduct persistence in CTC from 11 patients with their therapeutic response using the Spearman's rho rank correlation coefficient. […]

[2] = system: Pt-(GpG) in the DNA of CTC; experiment: Pt-(GpG) adduct levels in CTC after cisplatin infusion versus ex vivo exposure; design: species or system human; conditions: clinical dose 50 mgm_2 (1.4 mg kg_1 body weight); blood at baseline and 2, 4 and 24 h after infusion; same patient
Procedure: To test whether adduct kinetics measured in tumour cells after ex vivo exposure to cisplatin mirror the formation and repair rates for Pt-(GpG) in the DNA of those cells in vivo during systemic treatment, blood samples from the same patient were analysed under both the conditions.

For N.N.[Cl][Pt][Cl] [cisplatin], the “levels of DNA platination in CD45-positive cells as compared with CTC (fold lower)” value [1] was ~10 fold and the “CTC adduct levels after clinical dose versus ex vivo exposure” value [2] was “comparable to a short time ex vivo exposure with 20 mgml_1 for 2 h”.
